For orientation: pest or weed control means the degree to which the test organism was suppressed or injured, in per cent. A word on the melting point: it is the temperature of the solid-liquid transition.

In data set [1] the test system is Phaeosphaeria nodorum (Synonym: Septoria nodorum). The data set is described as follows: Test on the preventive effect against wheat glume blotch. It is filed as in vivo. The following applies: Parastagonospora nodorum, 144 h; test solution A 500 ppm, 5 ml per pot, wheat 1.3-leaf stage, 2 days inoculation chamber then 6 days at 20° C. On the procedure:
(§1) Compounds of the present invention were dissolved in a solvent for emulsion (a mixture of Sorpol (registered trademark) 3005XL (manufactured by Toho Chemical Industry Co., Ltd.): N-methylpyrrolidone: Solvesso (registered trademark) 200 (manufactured by ExxonMobil Chemical) in a ratio of 1:5:2) to prepare 20 wt % emulsifiable concentrates. Then, distilled water was added to dilute the emulsifiable concentrates to the prescribed concentration (500 ppm), and the obtained solutions were used in the following the Test Examples 1 to 8. Wheat (varieties: Haruyutaka) was seeded in 90 cm^3 plastic pot, and at 1.3-leaf stage, 5 ml per pot of test solution A of the compounds of the present invention was applied. One day after treatment, a suspension of conidium of Phaeosphaeria nodorum (Synonym: Septoria nodorum) was sprayed to the wheat, and the pot was left in the inoculation chamber at 20° C. under humidity of 100% RH for 2 days. Then, the pot was placed in an air-conditioned greenhouse (20° C.) for 6 days. The proportion of the formed lesion in the inoculated leaves were measured to calculate the control value in accordance with the same formula as in the Test Example 1. The test was carried out in duplicate.

Data set [2] deals with Blumeria graminis f. sp. tritici. As to the kind of experiment: Test on the preventive effect against wheat powdery mildew. Conditions: 168 h, test solution A 500 ppm, 5 ml per pot, wheat 1.3-leaf stage, 7 days after inoculation. The class given is in vivo. On the procedure: Compounds of the present invention were dissolved in a solvent for emulsion (a mixture of Sorpol (registered trademark) 3005XL (manufactured by Toho Chemical Industry Co., Ltd.): N-methylpyrrolidone: Solvesso (registered trademark) 200 (manufactured by ExxonMobil Chemical) in a ratio of 1:5:2) to prepare 20 wt % emulsifiable concentrates. Then, distilled water was added to dilute the emulsifiable concentrates to the prescribed concentration (500 ppm), and the obtained solutions were used in the following the Test Examples 1 to 8. Wheat (varieties: Norin 61) was seeded in 90 cm^3 plastic pot, and at the 1.3-leaf stage, 5 ml per pot of test solution A of the compounds of the present invention were applied. One day after treatment, the pot was placed in an air-conditioned greenhouse (20° C.), and conidium of Blumeria graminis f. sp. tritici was inoculated to the wheat. 7 days after, the proportion of the formed lesion in the inoculated leaves were measured to calculate the control value in accordance with the same formula as in the Test Example 1. The test was carried out in duplicate.

For data set [3], the system named is Botrytis cinerea. The data set is described as follows: Test on the preventive effect against cucumber gray mold (spore inoculation). It is filed as in vivo. Conditions: 72 h, test solution A 500 ppm, 5 ml per pot, cucumber cut leaves, conidium inoculation, 3 days at 20° C. On the procedure: Compounds of the present invention were dissolved in a solvent for emulsion (a mixture of Sorpol (registered trademark) 3005XL (manufactured by Toho Chemical Industry Co., Ltd.): N-methylpyrrolidone: Solvesso (registered trademark) 200 (manufactured by ExxonMobil Chemical) in a ratio of 1:5:2) to prepare 20 wt % emulsifiable concentrates. Then, distilled water was added to dilute the emulsifiable concentrates to the prescribed concentration (500 ppm), and the obtained solutions were used in the following the Test Examples 1 to 8. Cucumber (varieties: Sagami Hanjiro) was seeded in 90 cm^3 plastic pot, and at the cotyledon stage, 5 ml per pot of test solution A of the compounds of the present invention was applied. After drying in air, the treated leaves were cut and transferred in plastic containers. 30 μl of a mixture of a suspension of conidium of Botrytis cinerea and a dissolved PDA medium in a ratio of 1:1 was dropped on each treated leaf and inoculated. After the inoculation, the plastic containers were placed in 20° C. with humid conditions for 3 days, and the proportion of the formed lesion in the inoculated leaves were counted to calculate the control value in accordance with the same formula as in the Test Example 1. The test was carried out in duplicate.

In data set [4] the test system is Erysiphe polygoni (synonym: Erysiphe betae). As to the kind of experiment: Test on the preventive effect against cucumber powdery mildew. It is filed as in vivo. Conditions: 216 h, test solution A 500 ppm, 5 ml per pot sprayed, cucumber cotyledon stage, 9 days after inoculation. On the procedure: Compounds of the present invention were dissolved in a solvent for emulsion (a mixture of Sorpol (registered trademark) 3005XL (manufactured by Toho Chemical Industry Co., Ltd.): N-methylpyrrolidone: Solvesso (registered trademark) 200 (manufactured by ExxonMobil Chemical) in a ratio of 1:5:2) to prepare 20 wt % emulsifiable concentrates. Then, distilled water was added to dilute the emulsifiable concentrates to the prescribed concentration (500 ppm), and the obtained solutions were used in the following the Test Examples 1 to 8. Cucumber (varieties: Sagami Hanjiro) was seeded in 90 cm^3 plastic pot, and at the cotyledon stage, 5 ml per pot of test solution A of the compounds of the present invention was sprayed. After drying in air, the pot was placed in an air-conditioned greenhouse (20° C.), and a suspension of conidium of Erysiphe polygoni (synonym: Erysiphe betae) was sprayed. After the pot were replaced at the same temperature for 9 days, the proportion of the formed lesion in the inoculated leaves were counted to calculate the control value in accordance with the following formula. The test was carried out in duplicate. Control value=[1−(lesion area ratio in treated plot/lesion are a ratio in non-treated plot)]×100

In data set [5] the test system is Sclerotinia sclerotiorum. The data set is described as follows: Test on the preventive effect against cucumber stem rot. The class given is in vivo. Conditions: 48 h, test solution A 500 ppm, 5 ml per pot, agar block inoculation, 2 days at 20° C. How it is done: (§2) Compounds of the present invention were dissolved in a solvent for emulsion (a mixture of Sorpol (registered trademark) 3005XL (manufactured by Toho Chemical Industry Co., Ltd.): N-methylpyrrolidone: Solvesso (registered trademark) 200 (manufactured by ExxonMobil Chemical) in a ratio of 1:5:2) to prepare 20 wt % emulsifiable concentrates. Then, distilled water was added to dilute the emulsifiable concentrates to the prescribed concentration (500 ppm), and the obtained solutions were used in the following the Test Examples 1 to 8. Cucumber (varieties: Sagami Hanjiro) was seeded in 90 cm^3 plastic pot, and at the cotyledon stage, 5 ml per pot of test solution A of the compounds of the present invention was applied. After drying in air, the pot was transferred in a plastic container, and an agar blocks (diameter: 5 mm) containing Sclerotinia sclerotiorum which was preliminarily cultivated in a PDA medium was inoculated to the seed leaves of the cucumber treated with the solution. After the inoculation, the plastic container was covered with a plastic sheet, and placed at 20° C. and humidified for 2 days, thus the proportion of the formed lesion in the inoculated leaves were measured to calculate the control value in accordance with the same formula as in the Test Example 1. The test was carried out in duplicate.

Data set [6] deals with Asperaillus niger. The data set is described as follows: Test on the antifungal activity against Asperaillus niger. The following applies: 48 h; test solution B 100 ppm, 10 μl per well, 96 well plate, 25° C. dark, 2 days after treatment; read-out: efficacy (flora area ratio relative to non-treated well). The class given is cell-based. How it is done: Compounds of the present invention were dissolved in dimethyl sulfoxide to prepare 1 wt % solutions. Then, distilled water was added to dilute the solutions to the prescribed concentration (100 ppm), and the obtained solutions were used in the following the Test Examples 9 to 12. 60 μl of a potato dextrose 1% agar medium was added to each well of a 96 well plate, and 30 μl of sterilized water containing spores of Asperaillus niger (10 spores/3 μl) was added to each well. Further, 10 μl per well of test solution B of the compounds of the present invention was added, and the plate was left at rest at 25° C. under dark conditions. 2 days after treatment, the flora area ratio (%) was determined to calculate the efficacy (%) relative to the non-treated well in accordance with the following formula. Efficacy (%)=[1−(flora area ratio in treated plot/flora area ratio in non-treated well)]×100

Data set [7] deals with Botrytis cinerea. As to the kind of experiment: Test on the preventive effect against cucumber gray mold (mycelium inoculation). It is filed as in vivo. Conditions: 48 h, test solution A 500 ppm, 5 ml per pot, cucumber cotyledon, agar block inoculation, 2 days at 20° C. How it is done:
as §2, with “applied. On the next day,” for “applied. After drying in air,”, “containing Botrytis cinerea” for “containing Sclerotinia sclerotiorum”, “inoculated on” for “inoculated to”, “the cotyledon” for “the seed leaves”, “sheet, then” for “sheet, and”, “2 days. Thus” for “2 days, thus”

The subject of data set [8] is Puccinia recondita. As to the kind of experiment: Test on the preventive effect against wheat leaf rust. The class given is in vivo. Conditions: 216 h, test solution A 500 ppm, 5 ml per pot, wheat 1.3-leaf stage, 1 day inoculation chamber then 8 days at 20° C. On the procedure: as §1, with “Norin 61)” for “Haruyutaka)”, “spores” for “conidium”, “Puccinia recondita” for “Phaeosphaeria nodorum (Synonym: Septoria nodorum)”, “1 day. Thereafter,” for “2 days. Then,”, “8” for “6”, “counted” for “measured”

As for `N#CC(C#N)(CNC(=O)c1ccccc1C(F)(F)F)c1ncc(C#CC2CC2)cc1Cl` [1-023, N-[2-[3-chloro-5-(cyclopropylethynyl)pyridin-2-yl]-2,2-dicyanoethyl]-2-(trifluoromethyl)benzamide], the melting point was in the range of 42 to 44 °C. In addition, the pest or weed control at 500 µg/mL in data set [1] was ≥ 70%.
In turn, `Cn1cc(C(=O)NCC(C#N)c2ncc(C#CC3CC3)cc2Cl)c(C(F)F)n1` (centres unmarked) [8-021, N-[2-[3-chchloro-5-(cyclopropylethynyl)pyridin-2-yl]-2-cyanoethyl]-3-difluoromethyl-1-methyl-1H-pyrazole-4-carboxamide] came in with a melting point of 43 to 46 °C.
Turning to `CCOC(=O)C(CNC(=O)c1cn(C)nc1C(F)F)(C(=O)OCC)c1ncc(C#CC2CC2)cc1Cl` [8-023, 2-[3-chloro-5-(cyclopropylethynyl)pyridin-2-yl]-2-[(3-difluoromethyl-1-methyl-1H-pyrazole-4-carboxamide)methyl]malonic acid diethyl ester], the melting point lay within 87 to 88 °C. In addition, the pest or weed control at 500 µg/mL in data set [1] is ≥ 70%. Also, the pest or weed control at 500 µg/mL in [2] was ≥ 70%. In addition, the pest or weed control at 500 µg/mL in data set [3] is ≥ 70%. Further, the pest or weed control at 500 µg/mL in data set [4] is ≥ 70%.
For `Cn1cc(C(=O)NC2CC2c2ncc(C#CC3CC3)cc2Cl)c(C(F)F)n1` (centres unmarked) [8-033, N-[2-[3-chloro-5-(cyclopropylethynyl)pyridin-2-yl]cyclopropyl]-3-difluoromethyl-1-methyl-1H-pyrazole-4-carboxamide], the melting point was in the range of 176 to 178 °C. The pest or weed control at 500 µg/mL in data set [5] is ≥ 70%. For the same compound, the inhibition of growth at 100 µg/mL in data set [6] is ≥ 50%. Besides, the pest or weed control at 500 µg/mL in [7] is ≥ 70%. For the same compound, the pest or weed control at 500 µg/mL in [3] was ≥ 70%. Moreover, the pest or weed control at 500 µg/mL in data set [8] is ≥ 70%.
For `COC(c1ncc(C#CC2CC2)cc1Cl)C(C)NC(=O)c1sc(C)nc1C(F)F` (centres unmarked) [9-006b], the pest or weed control at 500 µg/mL in [8] was ≥ 70%.
Compound `Cn1cc(C(=O)N(C(=O)OC(C)(C)C)C2CC2c2ncc(C#CC3CC3)cc2Cl)c(C(F)F)n1` (centres unmarked) [12-002, tert-butyl N-[2-[3-chloro-5-(cyclopropylethynyl)pyridin-2-yl]cyclopropyl]-N-[3-difluoromethyl-1-methyl-1H-pyrazole-4-carbonyl]carbamate] showed a melting point of 110 to 112 °C. Also, the pest or weed control at 500 µg/mL in data set [3] was ≥ 70%.

Source of the values: patent publication US10029986B2, “Alkynyl pyridine-substituted amide compound and pesticide” (NISSAN CHEMICAL INDUSTRIES, LTD., priority 2014, dated 2018).
